Test results taken from PubChem BioAssay AID328 (DTP/NCI, 2004).
“And” between values parts separate entries of the source, which are not always exact repeats. Equal values may be shown once. Toxic doses and inconclusive results are not listed.

Tested on: BDF1 mice, P388 leukemia ip, median survival T/C
Assay: NCI In Vivo Anticancer Drug Screen. Data for tumor model P388 Leukemia (intraperitoneal) in B6D2F1 (BDF1) mice
Details: endpoint: median survival time, higher = longer survival
How it was run: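 Vehicle-dosed animals serve as the reference; survival of compound-dosed, tumour-implanted mice is divided by it.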

[1] = dose: 100.0 mg/kg/injection, schedule: Q01DX009 (ip), vehicle: saline
[2] = dose: 200.0 mg/kg/injection, schedule: Q01DX009 (ip), vehicle: saline
[3] = dose: 100.0 mg/kg/injection, schedule: Q01DX009 (ip), vehicle: Klucel (hydroxypropylcellulose) (HPC)
[4] = dose: 50.0 mg/kg/injection, schedule: Q01DX009 (ip), vehicle: saline with Tween-80
[5] = dose: 50.0 mg/kg/injection, schedule: Q04DX003 (ip), vehicle: saline with Tween-80
[6] = dose: 100.0 mg/kg/injection, schedule: Q01DX009 (ip), vehicle: saline with Tween-80
[7] = dose: 100.0 mg/kg/injection, schedule: Q04DX003 (ip), vehicle: saline with Tween-80
[8] = dose: 200.0 mg/kg/injection, schedule: Q01DX009 (ip), vehicle: saline with Tween-80
[9] = dose: 200.0 mg/kg/injection, schedule: Q04DX003 (ip), vehicle: saline with Tween-80
[10] = dose: 50.0 mg/kg/injection, schedule: Q01DX009 (ip), vehicle: saline
[11] = dose: 100.0 mg/kg/injection, schedule: Q04DX003 (ip), vehicle: Klucel (hydroxypropylcellulose) (HPC)
[12] = dose: 200.0 mg/kg/injection, schedule: Q04DX003 (ip), vehicle: Klucel (hydroxypropylcellulose) (HPC)
[13] = dose: 12.5 mg/kg/injection, schedule: Q01DX009 (ip), vehicle: saline with Tween-80
[14] = dose: 400.0 mg/kg/injection, schedule: Q04DX003 (ip), vehicle: saline with Tween-80
[15] = dose: 25.0 mg/kg/injection, schedule: Q01DX009 (ip), vehicle: saline

With `O=C1c2cc3c(cc2CCC1c1ccc2c(c1)OCO2)OCO3` (stereo not given) the T/C (dose: 20.0 mg/kg/injection, schedule: Q01DX009 (ip), vehicle: saline with Tween-80) was 91 % of control, the T/C (dose: 40.0 mg/kg/injection, schedule: Q01DX009 (ip), vehicle: saline with Tween-80) was 91 % of control and the T/C (dose: 120.0 mg/kg/injection, schedule: Q01DX009 (ip), vehicle: saline with Tween-80) was 95 % of control. For the same compound, the T/C (dose: 240.0 mg/kg/injection, schedule: Q01DX009 (ip), vehicle: saline with Tween-80) was 91 % of control.
In the case of `O=C1C2C(c3cc4ccccc4n31)N2c1ccccc1` (stereo not given), the T/C (dose: 0.03 mg/kg/injection, schedule: Q01DX010 (ip), vehicle: water) is reported as 110 % of control, the T/C (dose: 0.06 mg/kg/injection, schedule: Q01DX010 (ip), vehicle: water) is reported as 94 % of control and the T/C (dose: 0.13 mg/kg/injection, schedule: Q01DX010 (ip), vehicle: water) is reported as 94 % of control. For the same compound, the T/C (dose: 0.25 mg/kg/injection, schedule: Q01DX010 (ip), vehicle: water) was 94 % of control, the T/C (dose: 0.5 mg/kg/injection, schedule: Q01DX010 (ip), vehicle: water) was 105 % of control and the T/C (dose: 1.0 mg/kg/injection, schedule: Q01DX010 (ip), vehicle: water) was 105 % of control. For the same compound, the T/C (dose: 2.0 mg/kg/injection, schedule: Q01DX010 (ip), vehicle: water) was 105 % of control.
With `CC(O)C(=O)Oc1ccccc1` (stereo not given) the T/C [1] was 90 % of control and the T/C [2] was 109 % of control.
With `CC(=O)C(=Cc1c[nH]c2ccccc12)C(C)=O` the T/C (dose: 12.5 mg/kg/injection, schedule: Q01DX009 (ip), vehicle: Klucel (hydroxypropylcellulose) (HPC)) was 92 % of control, the T/C (dose: 25.0 mg/kg/injection, schedule: Q01DX009 (ip), vehicle: Klucel (hydroxypropylcellulose) (HPC)) was 90 % of control and the T/C [3] was 110 % of control. The T/C (dose: 100.0 mg/kg/injection, schedule: Q04DX003 (ip), vehicle: water) was 105 % of control and the T/C (dose: 200.0 mg/kg/injection, schedule: Q04DX003 (ip), vehicle: water) was 120 % of control.
With `S=C(N/N=C/c1ccc(-c2ccccc2)cc1)Nc1ccccc1` the T/C [4] was 91 % of control, the T/C [5] was 95 % of control and the T/C [6] was 91 % of control. For the same compound, the T/C [7] was 91 % of control, the T/C [8] was 91 % of control and the T/C [9] was 91 % of control.
For `CC1C(=O)CC(=O)C1=O` (stereo not given), the T/C [10] was 100 % of control, the T/C [1] was 104 % of control and the T/C [2] was 104 % of control.
In the case of `Cn1c(=O)c2c(c3ccccc31)Oc1oc3ccc4ccccc4c3c(=O)c1C2`, the T/C [4] is reported as 91 % of control and the T/C [8] is reported as 94 % of control.
In the case of `COC(=O)/C(=N\NS(=O)(=O)c1ccc(C)cc1)c1ccccc1`, the T/C (dose: 25.0 mg/kg/injection, schedule: Q04DX003 (ip), vehicle: Klucel (hydroxypropylcellulose) (HPC)) is reported as 98 % of control, the T/C (dose: 50.0 mg/kg/injection, schedule: Q04DX003 (ip), vehicle: Klucel (hydroxypropylcellulose) (HPC)) is reported as 100 % of control and the T/C [11] is reported as 94 % of control. The T/C [12] was 93 % of control.
`O=C1c2ccccc2C(=O)N1Cc1ccc([N+](=O)[O-])cc1` was tested, and the T/C [13] was 97 % of control, the T/C (dose: 25.0 mg/kg/injection, schedule: Q01DX009 (ip), vehicle: saline with Tween-80) was 96 % of control and the T/C [4] was 97 % of control. For the same compound, the T/C [6] was 92 % of control.
`COc1ccc(NC(=O)Oc2ccc3c(C)cc(=O)oc3c2)c(OC)c1` was tested, and the T/C [8] was 155 % of control and the T/C (dose: 400.0 mg/kg/injection, schedule: Q01DX009 (ip), vehicle: saline with Tween-80) was 100 % of control.
`CCC(=O)O[C@H]1CC[C@H]2[C@@H]3C[C@H](F)C4=CC(=O)CC[C@]4(C)[C@H]3CC[C@]12C` was tested, and the T/C [7] was 95 % of control, the T/C [9] was 95 % of control and the T/C (dose: 400.0 mg/kg/injection, schedule: Q01DX009 (ip), vehicle: saline sonified) was 109 % of control. For the same compound, the T/C [14] was 109 % of control.
For `CCN(CC)c1c(C)nnc2c(-c3ccccc3)nnn12`, the T/C [5] was 97 % of control, the T/C [7] was 100 % of control and the T/C [9] was 97 % of control.
`O=C1Nc2ccccc2S/C1=C\c1ccc(C(F)(F)F)cc1` was tested, and the T/C [4] was 115 % of control, the T/C [6] was 100 % of control and the T/C [8] was 110 % of control.
For `CC(C)CC(=O)C1=C(O)C(Nc2ccccc2)=CC(=O)C1=Nc1ccccc1`, the T/C [7] was 106 % of control, the T/C [9] was 118 % of control and the T/C [14] was 111 % of control.
In the case of `Clc1ncn[nH]1`, the T/C (dose: 100.0 mg/kg/injection, schedule: Q01DX001 (ip), vehicle: saline sonified) is reported as 120 % of control, the T/C (dose: 200.0 mg/kg/injection, schedule: Q01DX001 (ip), vehicle: saline sonified) is reported as 112 % of control and the T/C (dose: 400.0 mg/kg/injection, schedule: Q01DX001 (ip), vehicle: saline sonified) is reported as 120 % of control.
`CC1(C)Oc2cc3oc(C(=O)O)cc(=O)c3cc2-c2ccc(O)cc21` was tested, and the T/C (dose: 100.0 mg/kg/injection, schedule: Q04DX002 (ip), vehicle: saline with Tween-80) was 119 % of control, the T/C (dose: 200.0 mg/kg/injection, schedule: Q04DX002 (ip), vehicle: saline with Tween-80) was 107 % of control and the T/C (dose: 400.0 mg/kg/injection, schedule: Q04DX002 (ip), vehicle: saline with Tween-80) was 108 % of control.
`CCOC(=O)C(Br)c1cccc(OC)c1` (stereo not given) was tested, and the T/C [7] was 100 % of control, the T/C [9] was 100 % of control and the T/C [14] was 110 % of control.
In the case of `COc1cc(Br)c2c(c1OC)C(=O)CC2`, the T/C [3] is reported as 104 % of control, the T/C [11] is reported as 100 % of control and the T/C (dose: 200.0 mg/kg/injection, schedule: Q01DX009 (ip), vehicle: Klucel (hydroxypropylcellulose) (HPC)) is reported as 95 % of control. For the same compound, the T/C [12] was 91 % of control, the T/C (dose: 400.0 mg/kg/injection, schedule: Q01DX009 (ip), vehicle: Klucel (hydroxypropylcellulose) (HPC)) was 100 % of control and the T/C (dose: 400.0 mg/kg/injection, schedule: Q04DX003 (ip), vehicle: Klucel (hydroxypropylcellulose) (HPC)) was 95 % of control.
With `CN(C)c1ccc2c(c1)Cc1cc(N=C3C=CC(=O)O3)ccc1-2` the T/C (dose: 1.56 mg/kg/injection, schedule: Q01DX009 (ip), vehicle: Klucel (hydroxypropylcellulose) (HPC)) was 109 % of control, the T/C (dose: 3.12 mg/kg/injection, schedule: Q01DX009 (ip), vehicle: Klucel (hydroxypropylcellulose) (HPC)) was 100 % of control and the T/C (dose: 6.25 mg/kg/injection, schedule: Q01DX009 (ip), vehicle: Klucel (hydroxypropylcellulose) (HPC)) was 90 % of control. For the same compound, the T/C [15] was 92 % of control and the T/C [10] was 100 % of control.
In the case of `CCOC(=S)Nc1ccc(F)cc1`, the T/C (dose: 33.7 mg/kg/injection, schedule: Q01DX009 (ip), vehicle: saline with Tween-80) is reported as 94 % of control, the T/C (dose: 67.5 mg/kg/injection, schedule: Q01DX009 (ip), vehicle: saline with Tween-80) is reported as 103 % of control and the T/C (dose: 135.0 mg/kg/injection, schedule: Q01DX009 (ip), vehicle: saline with Tween-80) is reported as 102 % of control.
In the case of `CN(C)P(=O)(N(C)C)N(C)CCN(C)P(=O)(N(C)C)N(C)C`, the T/C (dose: 12.5 mg/kg/injection, schedule: Q01DX009 (ip), vehicle: saline) is reported as 108 % of control, the T/C [15] is reported as 101 % of control and the T/C [10] is reported as 101 % of control and 111 % of control.
`CCS(=O)c1ncc2cnccn12` (stereo not given) was tested, and the T/C (dose: 12.5 mg/kg/injection, schedule: Q04DX003 (ip), vehicle: water) was 109 % of control, the T/C (dose: 25.0 mg/kg/injection, schedule: Q04DX003 (ip), vehicle: water) was 92 % of control and the T/C (dose: 50.0 mg/kg/injection, schedule: Q01DX009 (ip), vehicle: water) was 102 % of control. For the same compound, the T/C (dose: 50.0 mg/kg/injection, schedule: Q04DX003 (ip), vehicle: water) was 100 % of control and 101 % of control and the T/C (dose: 100.0 mg/kg/injection, schedule: Q01DX009 (ip), vehicle: water) was 94 % of control.
In the case of `CCOC(=O)c1cc(-c2ccccc2)[nH]c1-c1ccccc1`, the T/C [10] is reported as 96 % of control, the T/C [1] is reported as 100 % of control and the T/C [2] is reported as 98 % of control.
In the case of `CCOC(=O)N1CCN(CCCOc2ccc(Cl)cc2Cc2ccccc2)CC1`, the T/C [4] is reported as 96 % of control, the T/C [6] is reported as 96 % of control and the T/C [8] is reported as 105 % of control.
With `CCCSc1ncnc2nc(C)[nH]c12` the T/C (dose: 0.39 mg/kg/injection, schedule: Q01DX009 (ip), vehicle: saline with Tween-80) was 100 % of control, the T/C (dose: 0.78 mg/kg/injection, schedule: Q01DX009 (ip), vehicle: saline with Tween-80) was 109 % of control and the T/C (dose: 1.56 mg/kg/injection, schedule: Q01DX009 (ip), vehicle: saline with Tween-80) was 100 % of control and 122 % of control. For the same compound, the T/C (dose: 3.13 mg/kg/injection, schedule: Q01DX009 (ip), vehicle: saline with Tween-80) was 95 % of control and 100 % of control, the T/C (dose: 6.25 mg/kg/injection, schedule: Q01DX009 (ip), vehicle: saline with Tween-80) was 103 % of control and the T/C [13] was 103 % of control.
